As usually defined, the Cmax is the peak of the concentration-time curve.

Data set [1] is described as follows: Oral bioavailability in rats (data on file). Type of data set: in vivo. Particulars: administered orally to rats.
The nature of data set [2]: Assessment of oral pharmacokinetics / bioavailability in jugular vein cannulated Wistar rats. Type of data set: in vivo. The following applies: 10 mg/kg, Wistar rats (n=5), Mean. The procedure:
Bioavailability of 1-(2-thien-2′-yl-2-oxo-ethyl)-3-(methanesulfonyl hydrazine carbonyl) pyridinium compound was checked using formulations as given in Table 2.
The assessment of oral pharmacokinetics was carried out. […] The blood samples were withdrawn at pre-determined time points; pre-dose (0.0 hr), 0.25, 0.5, 1, 2, 4, 6, 8, 12 and 24 hrs post dose. Plasma obtained at each time point was subjected to quantification of 1-(2-thien-2′-yl-2-oxo-ethyl)-3-(methanesulfonyl hydrazine carbonyl) pyridinium compound. LC-MS/MS method was used for the quantification of 1-(2-thien-2′-yl-2-oxo-ethyl)-3-(methanesulfonyl hydrazine carbonyl) pyridinium compound using an internal standard. The plasma samples were analyzed using solid phase extraction techniques in the calibration range of 0.500 ng/mL to 1000.000 ng/mL.
Data were presented with Mean±SD (standard deviation) and compared with 1-(2-thien-2′-yl-2-oxo-ethyl)-3-(methanesulfonyl hydrazine carbonyl) pyridinium compound PK data obtained after oral administration of solution of 1-(2-thien-2′-yl-2-oxo-ethyl)-3-(methanesulfonyl hydrazine carbonyl) pyridinium chloride in water under similar conditions.

For data set [3] the following is noted: phase I clinical studies, humans; cited from earlier work.
The conditions of data set [4]: clinical studies, administered orally; cited from earlier work.
The subject of data set [5] is animal models of Type II diabetes. The following applies: cited from earlier work.

On to “1-(2-thien-2′-yl-2-oxo-ethyl)-3-(methanesulfonyl hydrazine carbonyl) pyridinium bromide”, for which the bioavailability result in data set [1] is listed as “very low”.
In the case of “1-(2-thien-2′-yl-2-oxo-ethyl)-3-(methanesulfonyl hydrazine carbonyl) pyridinium chloride”, in data set [2], the AUClast came out at 222.86 ng·h/mL and the Cmax stood at 85.764 ng/mL. For the same substance, the oral bioavailability entry in data set [3] is “very low”. Moreover, the safety and tolerability entry in data set [4] is “safe and well tolerated”. Moreover, the “effect on cardiomyopathy and nephropathy” value in data set [5] is “improve cardiomyopathy and nephropathy”.

Source of the values: patent publication US10772879B2, “Pharmaceutical formulations” (TORRENT PHARMACEUTICALS LIMITED, priority 2015, dated 2020).
